This is an account of results in patent EP1914309A1 (priority 2006, dated 2008).

Assay [1] has as its system HIV-1. The settings on record: concentration at which cell infection by a virus having tropism for said cell is 100% blocked. From the text:
A "saturating dose of an inhibitor" denotes a concentration of inhibitor at which cell infection by a virus having tropism for said cell is 100% blocked by the inhibitor, which is function of the inhibitor.

In assay [2] the test system is X4 tropic virus. The settings on record: mixture of viral envelopes from reference viruses NL4-3 and JR-CSF; infection via CXCR4; inhibitor at saturating dose; Figure 5.
Experimental: Viral supernatants are used to infect U373MG-CD4 indicator cells expressing either the CCR5 or CXCR4 co-receptor (U373-CCR5 or U373-CXCR4), in presence or absence of co-receptor inhibitors at a saturating dose. The indicator cells contain the lacZ gene under control of the HIV-1 LTR which allows the determination of viral infection and thus of viral tropism using a colorimetric assay based on the expression of the β-galactosidase by Tat (see Figure 4).
In the RVA tropism, viral infection is detected independently for both co-receptors. A sample is considered positive when the ratio [OD sample/ OD control] reaches or exceeds 1.5 (the control being an R5-tropic virus on CXCR4+ cells or a X4-tropic virus on CCR5+ cells).
On the day of infection, the condition of the indicator U373-CCR5 and U373-CXCR4 cells is verified. CXCR4- and CCR5-inhibitors are prepared at 4x their final concentrations used in the test (e.g. 4x AMD-3100 at 8 µg/ml). […]
The β-galactosidase produced by the infected U373-CCR5 or U373-CXCR4 cells is quantified: the level of marker expressed is quantified by measuring the β-galactosidase activity by using a CPRG (chlorophenolred-β-D-galactopyranoside) substrate. […]

Structures are written as SMILES.

On to `c1cc(CN2CCCNCCNCCCNCC2)ccc1CN1CCCNCCNCCCNCC1` [AMD3100], for which, in assay [1], the “saturating dose of an inhibitor” value is given as “up to 2 µg/ml”. Besides, in assay [2], the inhibition of infection came out at 100%.
